Where a name gives a salt, the structure may show the parent alone. Read-outs that look alike come from different tables or passages of the source.
How the values were obtained:
β-lactamase Tem-1 = target: T1, β-lactamase Tem-1 (Escherichia coli, UniProt P62593); assay: Inhibitory activity for β-lactamases (nitrocefin hydrolysis); type: biochemical, E. coli 250HT21
T1 construct: The β-lactamases are isolated from bacterial strains resistant to penicillins and to cephalosporins; endogenous in cells; host or cells: E. coli 250HT21, soluble fraction of French-press lysate
Method: (§1) II/Inhibitory Activity for β-Lactamases
(§2) A. Preparation of the β-Lactamases Tem-1 and P99
(§3) The β-lactamases are isolated from bacterial strains resistant to penicillins and to cephalosporins (Tem1 and P99 are produced respectively by E. coli 250HT21 and E. Cloacae 293HT6).
(§4) The bacteria are cultured in 37 g/l brain-heart broth (DIFCO) at 37° C. They are harvested in the exponential phase, cooled and centrifuged. The bacterial pellets are taken up in 50 mM sodium phosphate buffer, pH 7.0, and are again centrifuged. The bacteria are taken up in two volumes of the same buffer and lyzed using a French press maintained at 4° C. After centrifuging for 1 h at 100 000 g at 4° C., the supernatants comprising the soluble fraction of the bacterial extracts are recovered and frozen at −80° C.
(§5) B. Determination of the β-Lactamase Activity
(§6) The method uses nitrocefin (Oxoid), a chromogenic cephalosporin, the product of hydrolysis by β-lactamases of which is red and absorbed at 485 nm, as substrate. The β-lactamase activity is determined kinetically by the measurement, on a plate spectrophotometer (Spectra Max Plus from Molecular Devices), of the variation in absorbance at 485 nm resulting from the hydrolysis of the substrate. The experiments are carried out at 37° C. The amount of enzyme was standardized and the measurements are carried out at the initial rate.
(§7) C. Determination of the Inhibitory Activity for β-Lactamases
(§8) Two measurements are carried out, without preincubation and with preincubation of the enzyme and of the inhibitor (5 min), in order to test the irreversibility of the reaction. The products are tested at 6 or 8 concentrations in duplicate. The reaction mixture comprises 100 μM nitrocefin and 50 mM sodium phosphate buffer, pH 7.0.
(§9) D. Calculations of the IC50 Values
(§10) The rates of hydrolysis are measured with and without inhibitor. The concentration of inhibitor which inhibits by 50% the reaction for the hydrolysis of nitrocefin by the enzyme is determined (IC50). The processing of the data is carried out using GraFit software (Erathycus Software).

β-lactamase P99 = target: T2, β-lactamase P99 (Enterobacter cloacae, UniProt P05364); assay: as above; type: biochemical
T2 construct: The β-lactamases are isolated from bacterial strains resistant to penicillins and to cephalosporins; endogenous in cells; host or cells: Enterobacter cloacae 293HT6, soluble fraction of French-press lysate
Method: as §1, §2, §3, §4, §5, §6, §7, §8, §9, §10

[1] = after 5 min of preincubation with the enzyme, 100 μM nitrocefin, 50 mM sodium phosphate buffer pH 7.0, 37° C., read-out: IC50 nM/TEM1
[2] = after 5 min of preincubation with the enzyme, 100 μM nitrocefin, 50 mM sodium phosphate buffer pH 7.0, 37° C., read-out: IC50 nM/P99

T1 sequence (P62593 24-286 limits assumed): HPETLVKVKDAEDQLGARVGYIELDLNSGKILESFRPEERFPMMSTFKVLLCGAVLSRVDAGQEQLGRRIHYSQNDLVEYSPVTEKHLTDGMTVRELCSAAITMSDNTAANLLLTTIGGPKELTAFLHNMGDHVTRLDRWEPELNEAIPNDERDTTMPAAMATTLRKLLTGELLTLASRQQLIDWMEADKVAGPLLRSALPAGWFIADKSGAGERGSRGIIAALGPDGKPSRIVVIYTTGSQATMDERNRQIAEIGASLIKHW
T2 sequence (P05364 21-381): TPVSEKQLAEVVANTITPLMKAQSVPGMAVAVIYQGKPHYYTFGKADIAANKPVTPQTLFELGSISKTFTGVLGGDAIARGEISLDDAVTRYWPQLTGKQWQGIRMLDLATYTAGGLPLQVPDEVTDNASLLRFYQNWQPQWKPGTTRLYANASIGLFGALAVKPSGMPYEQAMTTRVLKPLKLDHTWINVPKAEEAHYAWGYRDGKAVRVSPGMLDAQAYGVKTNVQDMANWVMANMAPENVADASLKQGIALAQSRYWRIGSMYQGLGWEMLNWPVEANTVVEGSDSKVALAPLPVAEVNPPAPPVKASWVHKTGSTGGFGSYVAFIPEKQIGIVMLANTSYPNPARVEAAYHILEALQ

Compound	IC50 (β-lactamase Tem-1) [nM]	IC50 (β-lactamase P99) [nM]	IC50 (β-lactamase Tem-1; [1]) [nM]	IC50 (β-lactamase P99; [2]) [nM]
O=C(O)CON1C(=O)N2CC1c1ccccc1N2C(=O)NS(=O)(=O)c1ccccc1 (stereo not shown) [Example 9, Bis[N-(1-methylethyl)-2-propanaminium] salt of [[1,5-dihydro-3-oxo-1-[[(phenylsulfonyl)amino]carbonyl]-2,5-methano-2H-1,2,4-benzotriazepin-4(3H)-yl]oxy]acetic acid]	160000	180000	–	–
C=CCON1C(=O)N2CC1c1ccccc1N2C(=O)NS(=O)(=O)c1ccccc1 (stereo not shown) [Example 15, 4,5-Dihydro-3-oxo-N-(phenylsulfonyl)-4-(2-propenyloxy)-2,5-methano-2H-1,2,4-benzotriazepin-1(3H)-carboxamide]	–	–	450000	110000
CCOC(=O)CN1c2ccccc2C2CN1C(=O)N2OS(=O)(=O)O (stereo not shown) [Example 27, Sodium Salt of Ethyl 4,5-dihydro-3-oxo-4-(sulfoxy)-2,5-methano-2-H-1,2,4-benzotriazepine-1(3H)-acetate]	–	–	7500	530
O=C(O)CON1C(=O)N2CC1c1ccccc1N2C(=O)NC(=O)c1ccccc1 (stereo not shown) [Example 7, N-(1-Methylethyl)-2-propanaminium salt of [[1-[(benzoylamino)carbonyl]-1,5-dihydro-3-oxo-2,5-methano-2H-1,2,4-benzotriazepin-4(3H)-yl]oxy]acetic acid]	110000	63000	–	–
CS(=O)(=O)N1c2ccccc2C2CN1C(=O)N2OCC(=O)O (stereo not shown) [Example 5, N-(1-Methylethyl)-2-propanaminium salt of [[1,5-dihydro-1-(methylsulfonyl)-3-oxo-2,5-methano-2H-1,2,4-benzotriazepin-4(3H)-yl]oxy]acetic acid]	570000	460000	–	–
C=CCON1C(=O)N2CC1c1ccccc1N2Cc1cccnc1 (stereo not shown) [Example 14, 4,5-Dihydro-4-(2-propenyloxy)-1-(3-pyridinylmethyl)-2,5-methano-2H-1,2,4-benzotriazepin-3(1H)-one]	–	–	26000	17000
O=C(O)CON1C(=O)N2CC1c1ccccc1N2 (stereo not shown) [Example 11, N-(1-Methylethyl)-2-propanaminium salt of [(1,5-dihydro-3-oxo-2,5-methano-2H-1,2,4-benzotriazepin-4(3H)-yl)oxy]acetate acid]	14000	15000	–	–
CN1c2ccccc2C2CN1C(=O)N2OS(=O)(=O)O (stereo not shown) [Example 28, Sodium salt of 4,5-dihydro-1-methyl-4-(sulfooxy)-2,5-methano-2H-1,2,4-benzotriazepin-3(1H)-one]	–	–	12000	37000
